Patent US8173387B2, “Method of examining chemical using gene-disrupted strain” (priority 2003, dated 2012)

Experiments:
Format in all cases: cell-based, Saccharomyces cerevisiae
[1] = system: gene-disrupted strain DEL025 (YLR311C) transformed with a plasmid p-YBR072W; experiment: promoter assay (GFP reporter), Example 2; conditions: DEL025, p-YBR072W, GFP fluorescence 4 hours after loading, parent strain BY4743
Method: (§1) In a gene-disrupted strain, a growing rate becomes small so much, or medium components in which the strain can be grown are different in some cases, depending on a disrupted gene. Then, in the present experiment studying a host cell of a promoter assay method, in view of easy comparison with a control experiment, among gene-disrupted strains obtained as the result of Example 1, a few strains which have sensitivity to many chemicals and are grown by the same procedure as that of a parent strain were selected. Selected gene-disrupted strains are 8 strains of DEL000, DEL002, DEL011, DEL014, DEL016, DEL019, DEL022 and DEL025 in Table 7. Further, as a control, a parent strain, BY4743 was used.
(§2) A competent cell of each of a parent strain of a gene-disrupted strain and selected gene-disrupted strains was prepared. This competent cell was transformed using two kinds of prepared plasmids for promoter assay, p-YBR072W (in which GFP was connected understream of a promoter of YBR072W) and p-YPL171C (in which GFP was connected downstream of a promoter of YPL171C).
(§3) The resulting transformant was grown to the steady state by shaking-culturing on a SD medium (histidine, leucine) at 25° C. The transformant in the steady state was diluted 500-fold with the same medium, shaking-cultured at 25° C. for 15 hours and, after it was confirmed that an absorbance at 600 nm was 0.2 to 0.5 as a logarithmic growth phase, chemicals having different concentrations were loaded. After loading of chemicals, fluorescence of cells which had been cultured for 4 hours was measured using a flow cytometer (FITC filter, EPICS XL-MCL, Bechmancoulter), and this was adopted as an expression amount of GFP (green fluorescence protein) which is a marker gene. A fluorescence intensity of 10000 cells was measured with a flow cytometer by one measurement and an average of fluorescence intensities of all cells was obtained, and was adopted as a measured value. Similarly, a fluorescence intensity of a cell to which a chemical had not been loaded was obtained, and results are shown as a fluorescence intensity ratio.

[2] = system: gene-disrupted strain DEL000 (YPR036W) transformed with a plasmid p-YBR072W; experiment: promoter assay (GFP reporter), Example 2; conditions: GFP fluorescence 4 hours after loading, parent strain BY4743
Method: as §1, §2, §3

[3] = system: gene-disrupted strain DEL022 (YLR226W) transformed with a plasmid p-YBR072W; experiment: promoter assay (GFP reporter), Example 2; conditions: GFP fluorescence 4 hours after loading, parent strain BY4743
Method: as §1, §2, §3

[4] = system: gene-disrupted strain DEL019 (YIL036W) transformed with a plasmid p-YBR072W; experiment: promoter assay (GFP reporter), Example 2; conditions: DEL 019, p-YBR072W, GFP fluorescence 4 hours after loading, parent strain BY4743
Method: as §1, §2, §3

[5] = system: homozygous diploid of gene-disrupted strain DEL020 (YKL119C) transformed with a plasmid p-YBR072W; experiment: promoter assay (GFP reporter), Example 3; conditions: W303 background
Text: (§4) In order to prepare a gene-disrupted strain transformation cassette, genes having chemical sensitivity; YPR036W(DEL000), YDL151C(DEL001), YGL026C(DEL003), YHR039C-A(DEL006), YKL080W(DEL007), YLR447C(DEL008), YGR006W(DEL012), YGR105W(DRL013), YJR104C(DEL014), YGL206C(DEL018), YIL036W(DEL019), YKL119C(DEL020), YLR226W(DEL022) and YLR311C(DEL025) in Table 7 were selected, and each gene was replaced with a transformation marker such as kanamycin resistance. As primers for performing PCT amplification, a N-terminal side (ORF(upper)) and a C-terminal side (ORF(lower)) in each ORF were used. A length of a sequence (ORF(upper) and ORF(lower)) of a primer homologues with ORF was 46 or 50 bp.
(§5) A W303 a mating type (ATCC200903) and a W303α mating type (ATCC201238) in which the same gene was gene disruption-manipulated were mated by a mating procedure (Yeast Gene Experimental Manual: Maruzen Co., Ltd., p 83-92) to prepare homozygous diploids. Separately, mating of a W303a mating type, and a non-gene-disrupted W303α type was performed by the similar procedure to prepare heterozygous diploids.
(§6) By such the procedure, homozygous diploids of DEL000, DEL001, DEL003, DEL006, DEL007, DEL008, DEL012, DEL013, DEL014, DEL018, DEL019, DEL020, DEL022 and DEL025 in Table 7 were prepared. In addition, heterozygous diploids in which DEL006, DEL014 and DEL 022 were mated with a non-gene-disrupted strain (hereafter, referred to as DEL006 heterozygous diploid, DEL 014 heterozygous diploid, DEL022 heterozygous diploid) and, further, a heterozygous diploid in which DEL000 and DEL014 were mated (hereafter, referred to as DEL000/014 heterozygous diploid) were prepared.
(§7) Competent cells of W303 ATCC201239 (MATa/MATα leu2-3/leu2-3 leu2-112/leu2-112 trp1-1/trp1-1 ura3-1/ura3-1 his 3-11/his3-11 his3-15/his3-15 ade2-1/ade2-1 can1-100/can1-100) which is a parent strain of gene-disrupted strains, and each of prepared gene-disrupted strains were prepared. The competent cells were transformed using two kind of prepared plasmid for promoter assay, p-YBR072W (in which GFP is connected downstream of a promoter of YBR072W) and p-YPL171C (in which GFP is connected downstream of a promoter of YPL171C).
(§8) The resulting transformant was grown to the steady state by shaking-culturing on a SD medium (adenine, hystidine, triptophan, leucine) at 25° C. The transformant in the steady state was diluted 500-fold with the same medium, shaking-cultured at 25° C. for 15 hours and, after it was confirmed that an absorbance at 600 nm was 0.2 to 0.5 as a logarithmic growth phase, chemicals having different concentrations were loaded. After loading of chemicals, fluorescence of cells which had been cultured for 4 hours was measured using a flow cytometer (FITC filter, EPICS XL-MCL, Bechmancoulter), and this was adopted as an expression amount of GFP (green fluorescence protein) which is a marker gene. A fluorescence intensity of 10000 cells was measured with a flow cytometer by one measurement and an average of fluorescence intensities of all cells was obtained, and was adopted as a measured value. Similarly, a fluorescence intensity of a cell to which a chemical had not been loaded was obtained, and results are shown as difference in a fluorescence intensity.

[6] = system: homozygous diploid of gene-disrupted strain DEL012 (YGR006W) transformed with a plasmid p-YBR072W; experiment: promoter assay (GFP reporter), Example 3; conditions: W303 background
Text: as §4, §5, §6, §7, §8

[7] = system: homozygous diploid of gene-disrupted strain DEL013 (YGR105W) transformed with a plasmid p-YBR072W; experiment: promoter assay (GFP reporter), Example 3; conditions: W303 background
Text: as §4, §5, §6, §7, §8

[8] = system: homozygous diploid of gene-disrupted strain DEL022 (YLR226W) transformed with a plasmid p-YBR072W; experiment: promoter assay (GFP reporter), Example 3; conditions: DEL022 (DEL0022) homozygous diploid, W303 background
Text: as §4, §5, §6, §7, §8

[9] = system: homozygous diploid of gene-disrupted strain DEL007 (YKL080W) transformed with a plasmid p-YBR072W; experiment: promoter assay (GFP reporter), Example 3; conditions: EL007 homozygous diploid, W303 background
Text: as §4, §5, §6, §7, §8

[10] = system: heterozygous diploid of gene-disrupted strain DEL022 (YLR226W) transformed with a plasmid p-YBR072W; experiment: promoter assay (GFP reporter), Example 3; conditions: DEL0022 heterozygous diploid, W303 background
Text: as §4, §5, §6, §7, §8

[11] = system: homozygous diploid of gene-disrupted strain DEL006 (YHR039C-A) transformed with a plasmid p-YBR072W; experiment: promoter assay (GFP reporter), Example 3; conditions: W303 background
Text: as §4, §5, §6, §7, §8

**Q.** How did the “concentration at which the strain responded, as fraction of a concentration of a parent strain” value [1] turn out when `CCN(CC)C(=O)SCc1ccc(Cl)cc1` [benthiocarb] was run?
**A.** 1/3

**Q.** And the “concentration at which the strain responded, as fraction of a concentration of a parent strain” value [2]?
**A.** 1/3

**Q.** What about the “concentration at which the strain responded, as fraction of a concentration of a parent strain” value [3] of the same compound?
**A.** 1/10

**Q.** And the “concentration at which the strain responded, as fraction of a concentration of a parent strain” value [4]?
**A.** 1/100

**Q.** What about the “concentration at which sensitivity is shown, as fraction of a concentration of a gene-non-disrupted strain” value [5] of the same compound?
**A.** 1/3

**Q.** What about the “concentration at which sensitivity is shown, as fraction of a concentration of a gene-non-disrupted strain” value [6] of the same compound?
**A.** 1/3

**Q.** And the “concentration at which sensitivity is shown, as fraction of a concentration of a gene-non-disrupted strain” value [7]?
**A.** 1/3

**Q.** What about the “concentration at which sensitivity is shown, as fraction of a concentration of a gene-non-disrupted strain” value [8] of the same compound?
**A.** 1/10

**Q.** What about the “concentration at which sensitivity is shown, as fraction of a concentration of a gene-non-disrupted strain” value [9] of the same compound?
**A.** 1/10

**Q.** What about the “concentration at which sensitivity is shown, as fraction of a concentration of a gene-non-disrupted strain” value [10] of the same compound?
**A.** 1/3

**Q.** What about the “concentration at which sensitivity is shown, as fraction of a concentration of a gene-non-disrupted strain” value [11] of the same compound?
**A.** 1/10
